Columns and labels:
[1] = tested on: tracheal preparations (guinea pig trachea); test: in vitro tracheal preparations of the guinea pig, relaxation under isoproterenol
[2] = tested on: β-adrenoceptor (guinea pig atrium); test: spontaneously beating guinea pig atrium test: inhibition of the positive chronotropic isoprenaline effect; conditions: β-adrenoceptor blocking activity, vs isoprenaline
[3] = at concentrations as high as 1×10^-4 M

Compound	effect in the trachea ([1]; at concentrations as high as 2×10^-5 M)	Guinea pig atrium test Effective dose (molar concentration) [2] [nM]	effect in the trachea [1, 3]
COCCc1ccc(OCC(O)CNCCNC(=O)C2CCCOC2)cc1 (centres unmarked) [Example 1, 1-[4-(2-Methoxyethyl)phenoxy]-3-[2-(tetrahydropyran-3-ylcarbonylamino)ethylamino]-2-propanol]	no effect	–	–
COCCc1ccc(OCC(O)CNCCNC(=O)C2CCOCC2)cc1 (centres unmarked) [Example 3]	–	200	–
COCCOc1ccc(OCC(O)CNCCNC(=O)C2CCOCC2)cc1 (centres unmarked) [Example 6]	–	400	no effect
COCCc1ccc(OCC(O)CNCCNC(=O)C2CCOCC2)c(C#N)c1 (centres unmarked) [Example 7]	–	80	–
COCCc1ccc(OCC(O)CNCCNC(=O)C2CCCOC2)c(Br)c1 (centres unmarked) [Example 8]	–	80	–
COCCc1ccc(OCC(O)CNCCNC(=O)C2CCCOC2)c(C#N)c1 (centres unmarked) [Example 9]	–	300	–
O=C(NCCNCC(O)COc1ccc(OCCOCC2CC2)cc1)C1CCCOC1 (centres unmarked) [Example 10]	–	–	no effect
O=C(NCCNCC(O)COc1ccc(OCCOCC2CC2)cc1)C1CCOCC1 (centres unmarked) [Example 11]	–	200	no effect
O=C(NCCCNCC(O)COc1ccc(OCCOCC2CC2)cc1)C1CCOCC1 (centres unmarked) [Example 12]	–	3000	–
